Experimental findings from PubChem BioAssay (NCI) are described below.

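Cells were grown in 96-well plates and exposed to each compound for 48 hours at five concentrations; endpoints were interpolated linearly between bracketing concentrations, or set to the highest concentration if not reached. GI50 = concentration required for 50% inhibition of growth. At the TGI there is no net growth.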 Where a SMILES comes first, the peptide text is derived from it. Bridges are numbered along the chain shown (N, C = ends). The star is where a group is joined. Cbz = O=C(OCc1ccccc1)*

Test systems include NCI-H23 lung; SK-MEL-28 melanoma; NCI-H460 lung; M14 melanoma; SNB-19 CNS; CAKI-1 renal; K-562 leukemia; SF-539 CNS; MCF7 breast; NCI/ADR-RES ovarian; TK-10 renal; HS 578T breast; DU-145 prostate.
Holding throughout (test): NCI tumour cell line growth inhibition, 48 h

Regarding `COc1cc(/C=C2\Cc3cc(OC)c(OC)cc3C2=O)cc(OC)c1`, the TGI in the experiment on NCI-H23 lung is more than 56.9 µM; in the experiment with SK-MEL-28 melanoma it was more than 100 µM; with NCI-H460 lung it was 74.7 µM; in the experiment with M14 melanoma, more than 100 µM; in the experiment on SNB-19 CNS it was more than 100 µM; in the experiment on CAKI-1 renal, more than 100 µM. Also, the TGI in the experiment with K-562 leukemia was more than 100 µM; with SF-539 CNS, more than 42.7 µM; in the experiment with MCF7 breast, more than 100 µM; in the experiment with NCI/ADR-RES ovarian, more than 100 µM; in the experiment with TK-10 renal, more than 100 µM; with HS 578T breast it was more than 100 µM. Moreover, the TGI in the experiment with DU-145 prostate is more than 100 µM.

Take `CCOC(=O)C(NC(=O)CC)(Nc1ccc(S(=O)(=O)Nc2nc(C)cc(C)n2)cc1)C(F)(F)F` (stereo unspecified): the TGI in the experiment on NCI-H23 lung, with SK-MEL-28 melanoma, in the experiment with NCI-H460 lung, in the experiment with M14 melanoma, in the experiment on SNB-19 CNS and in the experiment on CAKI-1 renal was more than 100 µM throughout. Besides, the TGI in the experiment on K-562 leukemia, in the experiment on SF-539 CNS, in the experiment with MCF7 breast, in the experiment on NCI/ADR-RES ovarian, with TK-10 renal and with HS 578T breast was more than 100 µM in each case. In addition, the TGI with DU-145 prostate was more than 100 µM.

As for `C=C(Br)CNCC(=C)Br`, the TGI with NCI-H23 lung, in the experiment with SK-MEL-28 melanoma, in the experiment with NCI-H460 lung, in the experiment on M14 melanoma, with SNB-19 CNS and with CAKI-1 renal was more than 100 µM in each case. Further, the TGI with K-562 leukemia, in the experiment with SF-539 CNS, with MCF7 breast, in the experiment on NCI/ADR-RES ovarian, with TK-10 renal and with HS 578T breast was more than 100 µM each time. Moreover, the TGI in the experiment with DU-145 prostate was more than 100 µM.

As for `Cc1ccc(N=C2SC(c3ccc(C)cc3)(c3ccc(C)cc3)c3ccccc32)cc1`, the TGI in the experiment with NCI-H23 lung, in the experiment with SK-MEL-28 melanoma, in the experiment with NCI-H460 lung, in the experiment with M14 melanoma, with SNB-19 CNS and in the experiment with CAKI-1 renal was more than 100 µM throughout. The TGI with K-562 leukemia, with SF-539 CNS, in the experiment with MCF7 breast, in the experiment with NCI/ADR-RES ovarian, with TK-10 renal and with HS 578T breast was more than 100 µM throughout. Also, in the experiment with DU-145 prostate, the TGI was more than 100 µM.

On to `CCOC(=O)c1c(N2CCOCC2)[nH]c(=O)c(C(c2cccs2)c2c(O)c(C(=O)OCC)c(N3CCOCC3)[nH]c2=O)c1O`, for which the TGI in the experiment on NCI-H23 lung, with SK-MEL-28 melanoma, with NCI-H460 lung, in the experiment on M14 melanoma, in the experiment with SNB-19 CNS and in the experiment on CAKI-1 renal was more than 100 µM in each case. In addition, the TGI in the experiment with K-562 leukemia, in the experiment on SF-539 CNS, in the experiment with MCF7 breast, in the experiment with NCI/ADR-RES ovarian, in the experiment with TK-10 renal and in the experiment on HS 578T breast was more than 100 µM throughout. In the experiment on DU-145 prostate, this molecule had a TGI of more than 100 µM.

On to `CC(NNC(=O)c1ccncc1)c1ccc(Cl)c(Cl)c1` (stereo unspecified), for which the TGI in the experiment with NCI-H23 lung, in the experiment on SK-MEL-28 melanoma, with NCI-H460 lung, with M14 melanoma, with SNB-19 CNS and in the experiment with CAKI-1 renal was more than 100 µM each time. In addition, the TGI with K-562 leukemia, in the experiment with SF-539 CNS, with MCF7 breast, with NCI/ADR-RES ovarian, in the experiment with TK-10 renal and in the experiment on HS 578T breast was more than 100 µM throughout. This molecule also had a TGI with DU-145 prostate of more than 100 µM.

`O=C1NC2CCCCC2N=C1/C(C(=O)c1ccccc1)=C(\O)c1ccccc1` (stereo unspecified): the TGI in the experiment on NCI-H23 lung, in the experiment on SK-MEL-28 melanoma, in the experiment on NCI-H460 lung, in the experiment with M14 melanoma, in the experiment with SNB-19 CNS and in the experiment with CAKI-1 renal was more than 100 µM each time. For the same molecule, the TGI with K-562 leukemia, with SF-539 CNS, in the experiment with MCF7 breast, with NCI/ADR-RES ovarian, in the experiment on TK-10 renal and in the experiment with HS 578T breast was more than 100 µM throughout. In the experiment with DU-145 prostate, this molecule showed a TGI of more than 100 µM.

On to `Cn1c2c(c3ccccc31)CCN1C(=O)C3SC21C1C(=O)N(c2ccccc2)C(=O)C31` (stereo unspecified), for which the TGI in the experiment with NCI-H23 lung, with SK-MEL-28 melanoma, with NCI-H460 lung, with M14 melanoma, in the experiment with SNB-19 CNS and in the experiment with CAKI-1 renal was more than 100 µM each time. Further, the TGI in the experiment on K-562 leukemia is more than 100 µM; in the experiment on SF-539 CNS, more than 100 µM; in the experiment on MCF7 breast, more than 100 µM; in the experiment with NCI/ADR-RES ovarian it was more than 100 µM; in the experiment with TK-10 renal, more than 79.1 µM; in the experiment with HS 578T breast, more than 100 µM. The same molecule gave a TGI in the experiment with DU-145 prostate of more than 100 µM. Further, the GI50 in the experiment with NCI-H460 lung was 90.6 µM.

In the case of `COP(=O)(OC)C(NC=O)P(=O)(OC)OC`, the TGI in the experiment with NCI-H23 lung, in the experiment on SK-MEL-28 melanoma, with NCI-H460 lung, with M14 melanoma, in the experiment on SNB-19 CNS and in the experiment with CAKI-1 renal was more than 100 µM in each case. Moreover, the TGI with K-562 leukemia, with SF-539 CNS, with MCF7 breast, in the experiment on NCI/ADR-RES ovarian, in the experiment on TK-10 renal and in the experiment on HS 578T breast was more than 100 µM in each case. This molecule showed a TGI in the experiment with DU-145 prostate of more than 100 µM.

`COC(=O)C1CCCCNC(=O)CCC(NC(=O)OCc2ccccc2)C(=O)N1` (stereo not drawn) (Cbz-Glu-Lys-OMe; lactam 1-2; configuration not given here): the TGI in the experiment on NCI-H23 lung, in the experiment on SK-MEL-28 melanoma, in the experiment on NCI-H460 lung, in the experiment on M14 melanoma, in the experiment with SNB-19 CNS and with CAKI-1 renal was more than 100 µM throughout. In addition, the TGI in the experiment on K-562 leukemia, in the experiment with SF-539 CNS, in the experiment on MCF7 breast, with NCI/ADR-RES ovarian, in the experiment on TK-10 renal and with HS 578T breast was more than 100 µM in each case. The TGI with DU-145 prostate was more than 100 µM.
